Measured values published in paper PMC6600163, “Inhibitory Effects of Diketopiperazines from Marine-Derived Streptomyces puniceus on the Isocitrate Lyase of Candida albicans” (Molecules, 2019).
Values after ≈ are worked out from the molar mass of the structure shown. Values joined by “and” are separate entries in the source; they are usually repeats but may differ in a detail not shown here. Identical values can stand only once. “Also recorded” adds a separate entry of the source. Like-named read-outs stand apart in the source and are kept apart here.

Legend:
C. albicans SC5314 = assay: In vitro growth assay (MIC) in YNB broth; type: cell-based, Candida albicans; settings: 28 °C
Description: (§1) The glyoxylate cycle is necessary for virulence in C. albicans, which can survive in macrophages under abundant carbon sources, such as fatty acids or their breakdown products. When C. albicans is phagocytosed by a macrophage, the shift in metabolism from glycolysis to the glyoxylate cycle is activated so that the cells can utilize C2 carbon sources. It was expected that ICL inhibitors would reduce the nutrient uptake capacity and impede survival of the pathogen in the macrophage. To determine whether cyclo(L-Phe-L-Val) affects C2 substrate use, C. albicans strains SC5314, ATCC10231, ATCC10259, ATCC11006, and ATCC18804 were grown in YNB liquid broth containing either 2% glucose or 2% acetate as the sole carbon source.
(§2) C. albicans strains were cultured in YNB broth containing 2% glucose at 28 °C for 24 h, centrifuged at 15,000× g for 1 min, and washed twice with sterile distilled water. […] Additional DMSO was added to the medium at a final concentration of 0.5%. The fungal strain culture (20 μL) was poured into a 96-well assay plate at a final concentration of 1 × 10^4 cells/mL and total volume of 100 μL. The culture plates were incubated at 28 °C for 3 days. The positive control was amphotericin B, which is a known antifungal compound.

[1] = biological target: T1, recombinant ICL (isocitrate lyase) from C. albicans ATCC10231 (Candida albicans, UniProt Q9P8Q7); assay: biochemical
T1 construct: made in house
T1 sequence (Q9P8Q7 whole entry): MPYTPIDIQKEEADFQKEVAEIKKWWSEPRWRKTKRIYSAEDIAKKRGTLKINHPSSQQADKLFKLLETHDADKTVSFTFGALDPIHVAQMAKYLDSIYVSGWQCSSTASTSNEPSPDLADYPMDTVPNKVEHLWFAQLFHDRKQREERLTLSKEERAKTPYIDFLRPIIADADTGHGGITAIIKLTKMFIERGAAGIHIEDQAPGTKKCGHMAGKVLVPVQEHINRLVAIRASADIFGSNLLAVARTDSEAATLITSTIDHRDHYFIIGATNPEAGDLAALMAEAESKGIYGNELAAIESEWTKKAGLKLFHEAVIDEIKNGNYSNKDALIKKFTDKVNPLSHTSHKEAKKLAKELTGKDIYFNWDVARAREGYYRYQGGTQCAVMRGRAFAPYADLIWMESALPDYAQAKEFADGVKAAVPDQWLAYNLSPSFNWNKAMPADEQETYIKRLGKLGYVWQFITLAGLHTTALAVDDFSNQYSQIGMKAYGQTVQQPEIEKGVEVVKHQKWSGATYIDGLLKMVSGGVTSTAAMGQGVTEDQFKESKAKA
Description: Isolated diketopiperazines were tested for ICL inhibitory activity according to methods reported previously. […] To determine the type of inhibition, kinetic analysis was performed with cyclo(L-Phe-L-Val) (inhibitor) and phenylhydrazine […]. The inhibitor constant (Ki) was calculated from the Dixon plot.
S. puniceus Act1085 was used as the diketopiperazine-producing strain. C. albicans SC5314 (ATCC MYA-2876) (wild-type), MRC10 (Δicl) (icl-deletion mutant), MRC11 (Δicl + ICL) (icl-deletion mutant), […], ATCC18804, and ATCC11006 were used for the growth assay. C. albicans ATCC10231 was used to obtain recombinant ICL. Prof. Michael C. Lorenz (University of Texas Health Science Center, Houston, TX, USA) kindly provided the ICL mutants.
Before evaluation of the ICL inhibitory activity of the test compounds, the recombinant ICL from C. albicans was prepared according to methods described in a previous report. The ICL inhibitory activity of the test compounds was determined according to a previously described method. The ICL inhibition assay is based on the principle that glyoxylate phenylhydrazone forms in the reaction reagent after treatment with isocitrate and phenylhydrazine. Each test compound was dissolved in DMSO. The reaction mixture consisted of 20 mM sodium phosphate buffer (pH 7.0), 1.27 mM threo-DL(+)isocitrate, 3.75 mM MgCl2, 4.1 mM phenylhydrazine, and 2.5 μg/mL purified ICL and was incubated with or without the test compounds at a concentration range of 1–128 μg/mL at 37 °C for 30 min. The increase in intensity of absorbance resulting from the formation of glyoxylate phenylhydrazone was observed using a spectrophotometer (Shimadzu) at a wavelength of 324 nm. The inhibitory activity of the test compound was calculated relative to that of the DMSO control (n = 3). The methods for determination of the IC50 value and ICL enzyme concentrations have been described in previous reports. A known ICL inhibitor, 3-nitropropionate, was used as a reference control.

C. albicans ATCC10259 = assay: In vitro growth assay (MIC) in YNB broth; type: cell-based; settings: Candida albicans, ATCC10259, 72 h, 28 °C
Description: as §1, §2

C. albicans ATCC18804 = assay: In vitro growth assay (MIC) in YNB broth; type: cell-based; settings: Candida albicans, ATCC18804, 72 h, 28 °C
Description: as §1, §2

C. albicans ATCC10231 = assay: In vitro growth assay (MIC) in YNB broth; type: cell-based; settings: Candida albicans, ATCC10231, 72 h, 28 °C
Description: as §1, §2

C. albicans ATCC11006 = assay: In vitro growth assay (MIC) in YNB broth; type: cell-based; settings: Candida albicans, ATCC11006, 72 h, 28 °C
Description: as §1, §2

[2] = tested on: C. albicans SC5314 (wild type) and icl-deletion mutants (MRC10 and MRC11); assay: Growth phenotype on YNB agar plates; type: cell-based, Candida albicans; settings: 2 days, 28 °C
Description: (§3) To determine whether the cell phenotype of the icl-deletion mutant is affected by the presence of cyclo(L-Phe-L-Val), a growth assay was conducted using C. albicans SC5314 (wild type) and two icl-deletion mutants (MRC10 and MRC11). After pre-culture, these strains were streaked onto YNB agar containing 2% glucose or 2% potassium acetate with or without 32 μg/mL cyclo(L-Phe-L-Val). All strains grew normally on both the plates with glucose and with glucose plus the compound. […] We further conducted semi-quantitative reverse-transcription (RT)-PCR to assess the effects of cyclo(L-Phe-L-Val) on ICL expression. No ICL-specific PCR product was detected in the cultures when SC5314 and MRC11 were grown in YNB liquid broth containing glucose. […] GPDH expression was detected in all treatments regardless of cyclo(L-Phe-L-Val) exposure.
(§4) Figure 3 Analysis of growth phenotypes and icl mRNA expression. […] Total RNA was prepared from these cells, and icl mRNA expression was analyzed by semi-quantitative RT-PCR. The GPDH housekeeping gene was evaluated as a loading control.
(§5) C. albicans SC5314 (wild type) and icl-deletion mutants (MRC10 and MRC11) were cultured in YNB broth containing 2% glucose at 28 °C on a rotary shaker for 24 h. […] RNA extraction, cDNA synthesis, and semi-quantitative RT-PCR were performed using previously described methods. […]

[3] = tested on: C. albicans strains SC5314, ATCC10231, ATCC10259, ATCC11006, and ATCC18804; assay: In vitro growth assay, summary over five strains; type: cell-based, Candida albicans
Description: as §1, §2

icl mRNA expression = assay: icl expression analysis by semi-quantitative RT-PCR; type: cell-based, Candida albicans; settings: SC5314 and MRC11, 2% potassium acetate plus 8, 16, 32 μg/mL compound, 4 h, 28 °C
Description: as §3, §4, §5

[4] = Candida albicans, SC5314, 72 h, 2% glucose, read-out: MIC
[5] = Candida albicans, SC5314, 72 h, 2% potassium acetate, read-out: MIC
[6] = Candida albicans, SC5314, 2% glucose, 72 h, read-out: MIC
[7] = ICL IC50, 37 °C, 30 min, pH 7.0, n = 3

O=C(O)CC[N+](=O)[O-] [3-Nitropropionate, reference compound]
MIC (C. albicans SC5314; 2% glucose, 72 h): >256 µg/mL
ICL IC50 ([1]; 37 °C, 30 min, pH 7.0, n = 3): 1.90 ± 1.57 µg/mL
IC50 ([1]; 37 °C, 30 min, pH 7.0, n = 3, read-out: ICL IC50): 15.9 ± 2.13 µM

C[C@@H]1[C@H](O)[C@@H](C)/C=C/C=C/C=C/C=C/C=C/C=C/C=C/[C@H](O[C@@H]2O[C@H](C)[C@@H](O)[C@H](N)[C@@H]2O)C[C@@H]2O[C@](O)(C[C@@H](O)C[C@@H](O)[C@H](O)CC[C@@H](O)C[C@@H](O)CC(=O)O[C@H]1C)C[C@H](O)[C@H]2C(=O)O [Amphotericin B, reference compound]
MIC (C. albicans SC5314; [4]): 1 µg/mL (≈ 1.08 µM)
MIC (C. albicans SC5314; [5]): 0.5 µg/mL (≈ 0.541 µM)
MIC (C. albicans ATCC10259; 2% glucose): 1 µg/mL (≈ 1.08 µM)
MIC (C. albicans ATCC10259; 2% potassium acetate): 0.5 µg/mL (≈ 0.541 µM)
MIC (C. albicans ATCC18804; 2% glucose): 1 µg/mL (≈ 1.08 µM)
MIC (C. albicans ATCC18804; 2% potassium acetate): 0.5 µg/mL (≈ 0.541 µM)
MIC (C. albicans ATCC10231; 2% glucose): 1 µg/mL (≈ 1.08 µM)
MIC (C. albicans ATCC10231; 2% potassium acetate): 0.5 µg/mL (≈ 0.541 µM)
MIC (C. albicans ATCC11006; 2% glucose): 0.5 µg/mL (≈ 0.541 µM)
MIC (C. albicans ATCC11006; 2% potassium acetate): 0.5 µg/mL (≈ 0.541 µM)

O=C1N[C@@H](Cc2ccccc2)C(=O)N2CCC[C@@H]12 [Cyclo(L-Phe-L-Pro), cyclo(L-Phe-L-Pro)]
MIC (C. albicans SC5314; [6]): > 256 µg/mL

CC(C)C1NC(=O)C(Cc2ccccc2)NC1=O [Cyclo(L-Phe-L-Val), cyclo(L-Phe-L-Val)]
MIC (C. albicans SC5314; [4]): > 256 µg/mL
MIC (C. albicans SC5314; [5]): 32 µg/mL (≈ 130 µM)
growth on YNB agar ([2]; 2% glucose plus 32 μg/mL compound): grew normally
growth on YNB agar ([2]; 2% potassium acetate plus 32 μg/mL compound): none of the tested strains exhibited growth; also recorded: no growth
Ki [1]: 64.9 µM
IC50 [1, 7]: 110 µM and 113 µM
type of inhibition ([1]; kinetic analysis): mixed inhibitor
MIC (C. albicans ATCC10259; 2% glucose): > 256 µg/mL
MIC (C. albicans ATCC10259; 2% potassium acetate): 64 µg/mL (≈ 260 µM)
MIC (C. albicans ATCC18804; 2% glucose): > 256 µg/mL
MIC (C. albicans ATCC18804; 2% potassium acetate): 64 µg/mL (≈ 260 µM)
MIC (C. albicans ATCC10231; 2% glucose): > 256 µg/mL
MIC (C. albicans ATCC10231; 2% potassium acetate): 32 µg/mL (≈ 130 µM)
MIC (C. albicans ATCC11006; 2% glucose): > 256 µg/mL
MIC (C. albicans ATCC11006; 2% potassium acetate): 32 µg/mL (≈ 130 µM)
MIC ([3]; Candida albicans, acetate as sole carbon source, range over five strains, read-out: minimum inhibitory concentration): 32 to 64 µg/mL (≈ 130 to 260 µM)
inhibitory effect on C. albicans growth ([3]; glucose as sole carbon source): no inhibitory effect
intensity of PCR band of icl product (icl transcript level) (icl mRNA expression): decreased; also recorded: declined

CC(C)C[C@@H]1NC(=O)[C@@H]2CCCN2C1=O [Cyclo(L-Pro-L-Leu), cyclo(L-Pro-L-Leu)]
MIC (C. albicans SC5314; [4]): > 256 µg/mL
IC50 [1, 7]: 534 µM

O=C1NC(Cc2ccc(O)cc2)C(=O)N2CCCC12 [Cyclo(L-Pro-L-Tyr), cyclo(L-Pro-L-Tyr)]
MIC (C. albicans SC5314; [6]): > 256 µg/mL
IC50 [1, 7]: > 984 µM

CC(C)[C@@H]1NC(=O)[C@@H]2CCCN2C1=O [Cyclo(L-Pro-L-Val), cyclo(L-Pro-L-Val)]
MIC (C. albicans SC5314; [4]): > 256 µg/mL
IC50 [1, 7]: 516 µM
